Laboratory results reported in BindingDB's records for doi:10.1111/cbdd.12280 (Universiti Kebangsaan Malaysia, Jalan Raja Muda Abdul Aziz, …, 2014).
pIC50: −log10 of the molar value.

Assays:
Phospholipase A2 group V = biological target: T1, Phospholipase A2 group V (Homo sapiens, UniProt P39877); assay: sPLA2-V activity assay; conditions: pH 8; 25 °C
T1 sequence (P39877 whole entry): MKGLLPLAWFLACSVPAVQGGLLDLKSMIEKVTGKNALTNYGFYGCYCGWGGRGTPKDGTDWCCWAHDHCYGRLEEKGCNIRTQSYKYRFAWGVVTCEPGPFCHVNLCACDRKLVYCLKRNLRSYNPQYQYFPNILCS
Description: Substrate 1,2-bis(heptanoylthio)-glycerophosphocholine and human recombinant PLA2-V were resuspended in assay buffer, and DTNB was dissolved in an aqueous solution of Tris-HCl (pH 8).

[1] = biological target: T2, Prostaglandin G/H synthase 1 (Ovis aries, UniProt P05979); assay: Cyclooxygenase activity assay; conditions: pH 8; 37 °C
T2 sequence (P05979 whole entry): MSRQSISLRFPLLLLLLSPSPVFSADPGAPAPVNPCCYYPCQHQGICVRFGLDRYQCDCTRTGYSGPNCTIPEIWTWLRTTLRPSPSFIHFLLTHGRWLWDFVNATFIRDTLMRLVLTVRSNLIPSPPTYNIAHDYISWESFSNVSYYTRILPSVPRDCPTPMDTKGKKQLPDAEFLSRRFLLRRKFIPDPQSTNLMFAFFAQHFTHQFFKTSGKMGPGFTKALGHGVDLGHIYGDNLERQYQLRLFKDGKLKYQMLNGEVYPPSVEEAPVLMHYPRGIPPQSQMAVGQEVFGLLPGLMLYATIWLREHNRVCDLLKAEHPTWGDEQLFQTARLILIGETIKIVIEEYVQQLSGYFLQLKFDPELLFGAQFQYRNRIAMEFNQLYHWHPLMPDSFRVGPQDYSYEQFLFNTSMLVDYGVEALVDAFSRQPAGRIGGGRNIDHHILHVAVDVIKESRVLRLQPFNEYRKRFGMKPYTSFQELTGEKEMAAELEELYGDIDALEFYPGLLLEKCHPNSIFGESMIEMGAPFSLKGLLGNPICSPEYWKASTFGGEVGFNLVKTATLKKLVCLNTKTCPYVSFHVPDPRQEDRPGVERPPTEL
Description: (§1) Reaction mixture containing 100 mM Tris-HCl buffer (pH 8) and COX-1 (ovine) or COX-2 (human recombinant) was preincubated for 10 min in a water bath at 37 °C. The reaction was initiated by the addition of 10 µL arachidonic acid (final concentration 100 µM). After 2 min, the reaction was terminated by adding 1 M HCl. Test compounds were dissolved in DMSO and diluted to the desired concentration with potassium phosphate buffer of pH 7.4.

Prostaglandin E synthase = biological target: T3, Prostaglandin E synthase (Homo sapiens, UniProt O14684); assay: Microsomal prostaglandin E synthase-1 activity assay; conditions: pH 7; 20 °C
T3 sequence (O14684 whole entry): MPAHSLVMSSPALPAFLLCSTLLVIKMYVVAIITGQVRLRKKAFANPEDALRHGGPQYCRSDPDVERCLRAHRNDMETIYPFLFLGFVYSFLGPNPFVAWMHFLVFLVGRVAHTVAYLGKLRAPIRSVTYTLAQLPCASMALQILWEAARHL
Description: The assay buffer contained 100 mM KHPO4 (pH 7.0), 2 mM EDTA and 2.5 mM reduced GSH. 100 µL of reaction buffer containing human recombinant mPGES-1 was added to 96-well non-binding plate, followed by the addition of test samples to their respective wells. The reaction mixture was incubated for 30 min at 20 °C. […] The reaction was quenched by adding 20 µL of SnCl2 solution in 1 N HCl.

Lipoxygenase = biological target: T4, Lipoxygenase (Glycine max, UniProt Q43440); assay: Lipo-oxygenase activity assay; conditions: pH 7; 25 °C
T4 sequence (Q43440 whole entry): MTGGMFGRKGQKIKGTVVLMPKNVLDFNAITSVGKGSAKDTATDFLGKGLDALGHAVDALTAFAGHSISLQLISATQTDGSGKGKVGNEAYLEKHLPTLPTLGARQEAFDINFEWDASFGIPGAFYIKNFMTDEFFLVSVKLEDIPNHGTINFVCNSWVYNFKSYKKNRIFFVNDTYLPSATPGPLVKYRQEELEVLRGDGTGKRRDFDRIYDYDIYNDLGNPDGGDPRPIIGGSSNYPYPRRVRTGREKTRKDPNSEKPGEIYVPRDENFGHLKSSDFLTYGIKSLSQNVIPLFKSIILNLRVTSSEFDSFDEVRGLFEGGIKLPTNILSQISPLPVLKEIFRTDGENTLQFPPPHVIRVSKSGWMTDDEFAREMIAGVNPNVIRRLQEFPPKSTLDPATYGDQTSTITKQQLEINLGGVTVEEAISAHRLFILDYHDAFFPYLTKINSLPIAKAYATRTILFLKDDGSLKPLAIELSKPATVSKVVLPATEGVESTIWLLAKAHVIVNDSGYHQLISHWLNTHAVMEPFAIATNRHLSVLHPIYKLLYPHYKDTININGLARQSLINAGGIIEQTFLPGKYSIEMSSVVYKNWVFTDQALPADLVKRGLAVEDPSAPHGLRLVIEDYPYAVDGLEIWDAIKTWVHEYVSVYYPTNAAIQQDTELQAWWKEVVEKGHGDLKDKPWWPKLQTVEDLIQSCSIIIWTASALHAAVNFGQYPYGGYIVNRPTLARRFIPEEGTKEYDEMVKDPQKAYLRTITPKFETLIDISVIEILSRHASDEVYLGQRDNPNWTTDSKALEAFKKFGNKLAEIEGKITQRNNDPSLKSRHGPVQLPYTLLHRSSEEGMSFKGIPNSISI
Description: The assay was progressed in 96-well microliter plates containing substrate, soybean LOX enzyme, and respective test substance at room temperature in a 0.1 M Tris-HCl buffer solution at pH 7. The reaction was initiated by the addition of substrate solution to all wells and incubated for 5 min, followed by the addition of 100 µL of chromogen solution to all wells to stop enzyme catalysis and incubated for 5 min. The absorbance was measured at 490 nm. Dimethyl sulphoxide served as a negative control.

[2] = biological target: T5, Prostaglandin G/H synthase 2 (Homo sapiens, UniProt P35354); assay: Cyclooxygenase activity assay; conditions: pH 8; 37 °C
T5 sequence (P35354 whole entry): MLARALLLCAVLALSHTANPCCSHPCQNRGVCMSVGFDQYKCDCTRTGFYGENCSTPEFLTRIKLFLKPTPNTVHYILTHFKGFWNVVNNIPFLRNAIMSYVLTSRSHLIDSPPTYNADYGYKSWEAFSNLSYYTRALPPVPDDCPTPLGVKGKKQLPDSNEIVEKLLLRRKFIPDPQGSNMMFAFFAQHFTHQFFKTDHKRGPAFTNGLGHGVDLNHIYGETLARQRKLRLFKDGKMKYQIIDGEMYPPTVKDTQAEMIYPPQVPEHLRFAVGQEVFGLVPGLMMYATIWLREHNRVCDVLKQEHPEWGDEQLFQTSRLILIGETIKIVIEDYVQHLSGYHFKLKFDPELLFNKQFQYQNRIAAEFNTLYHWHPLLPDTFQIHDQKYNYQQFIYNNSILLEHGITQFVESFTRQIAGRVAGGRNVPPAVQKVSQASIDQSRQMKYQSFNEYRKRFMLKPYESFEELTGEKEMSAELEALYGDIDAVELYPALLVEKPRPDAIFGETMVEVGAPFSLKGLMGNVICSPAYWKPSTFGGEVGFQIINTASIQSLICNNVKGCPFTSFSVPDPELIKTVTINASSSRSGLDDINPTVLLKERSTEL
Description: as §1

SMILES	pIC50 (Phospholipase A2 group V)	pIC50 [1]	pIC50 (Prostaglandin E synthase)	pIC50 (Lipoxygenase)	pIC50 [2]
CC(C)(C)c1ccc(/C=C/C(=O)/C=C/c2ccc(C(C)(C)C)cc2)cc1	4.29	4.27	4.43		
CCN(CC)c1ccc(/C=C2\CC/C(=C\c3ccc(N(CC)CC)cc3)C2=O)cc1 [2,5-Bis(4-diethylaminobenzylidene)cyclopentanone (17)]	4.99	4.50	5.26	4.25	
COc1cccc(/C=C2\CCC/C(=C\c3cccc(OC)c3OC)C2=O)c1OC [2,6-Bis(2,3-dimethoxybenzylidene)cyclohexanone (3)]	4.96	4.48	5.13	4.32	4.27
CCN(CC)c1ccc(/C=C2\CCC/C(=C\c3ccc(N(CC)CC)cc3)C2=O)cc1 [2,6-Bis(4-diethyl-aminobenzylidene)cyclohexanone (5)]	4.92	4.41	5.62		
CCN(CC)c1ccc(/C=C/C(=O)/C=C/c2ccc(N(CC)CC)cc2)cc1 [(1E,4E)‐1,5‐bis[4‐(diethylamino)phenyl]penta‐1,4‐ dien‐3‐one (11)]	4.79	4.42	5.16	4.02	4.02
COc1cc(C=CC(=O)CC(=O)C=Cc2ccc(O)c(OC)c2)ccc1O [(1E,6E)-1,7-bis(4-hydroxy-3-methoxyphenyl)hepta-1,6-diene-3,5-dione]		4.50	5.31	4.24	
COc1cccc(/C=C/C(=O)/C=C/c2cccc(OC)c2OC)c1OC [(1Z,4Z)–1-5-Bis[2,3(dimethoxy)phenyl]-1,4-pentadien-3-one (9)]	4.98	4.38	4.83	4.20	4.15
CC(C=C1CCC(=CC(C)c2ccccc2)C1=O)c1ccccc1 (stereo not drawn) [(2E,5E)‐2,5‐bis(2‐phenylpropylidene)cyclopentan‐1‐ one (16)]		3.50	5.13		
COc1cccc(/C=C2\CC/C(=C\c3cccc(OC)c3OC)C2=O)c1OC [(2E,5E)‐2,5‐bis[(2,3‐ dimethoxyphenyl)methylidene]cyclopentan‐1‐one (15)]	4.78	4.40	4.98	4.20	
CC(C)(C)c1ccc(/C=C2\CC/C(=C\c3ccc(C(C)(C)C)cc3)C2=O)cc1 [(2E,5E)‐2,5‐bis[(4‐tert‐butyl‐2‐ methylphenyl)methylidene]cyclopentan‐1‐one (14)]	4.08	4.22	4.61		
CC(C=C1CCCC(=CC(C)c2ccccc2)C1=O)c1ccccc1 (stereo not drawn) [(2E,6E)‐2,6‐bis(2‐phenylpropylidene)cyclohexan‐1‐ one (4)]	4.02	3.71	4.69		
CC(C)(C)c1ccc(/C=C2\CCC/C(=C\c3ccc(C(C)(C)C)cc3)C2=O)cc1 [(2E,6E)‐2,6‐bis[(4‐tert‐ butylphenyl)methylidene]cyclohexan‐1‐one (2)]	4.27	4.36	5.05		
CC(C=CC(=O)C=CC(C)c1ccccc1)c1ccccc1 (stereo not drawn) [(3E,6E)‐2,8‐diphenylnona‐3,6‐dien‐5‐one (10)]	3.90	3.71	4.22		
CC(Cc1ccc(O)c(O)c1)C(C)Cc1ccc(O)c(O)c1 (stereo not drawn) [LOX inhibitor, N/A]				5.03	
C[C@@H]1C[C@H]2[C@@H]3CCC4=CC(=O)C=C[C@]4(C)[C@@]3(F)[C@@H](O)C[C@]2(C)[C@@]1(O)C(=O)CO [dexamethasone (tetramethyl-rhodamine conjugated )]	6.21				
